Experiments:
Type in all cases: cell-based
ratP2X7 = molecular target: T1, ratP2X7 (Rattus norvegicus, UniProt Q64663); assay: P2X7 channel calcium-influx assay (Fluo-8, FLIPR TETRA), rat P2X7; conditions: HEK-293 cells stably transfected with P2X7; Bz-ATP at EC80; low divalent cation buffer; read-out: ratP2X7 (activity range)
T1 construct: expressed in transfected cells; host or cells: HEK-293
T1 sequence (Q64663 1-595): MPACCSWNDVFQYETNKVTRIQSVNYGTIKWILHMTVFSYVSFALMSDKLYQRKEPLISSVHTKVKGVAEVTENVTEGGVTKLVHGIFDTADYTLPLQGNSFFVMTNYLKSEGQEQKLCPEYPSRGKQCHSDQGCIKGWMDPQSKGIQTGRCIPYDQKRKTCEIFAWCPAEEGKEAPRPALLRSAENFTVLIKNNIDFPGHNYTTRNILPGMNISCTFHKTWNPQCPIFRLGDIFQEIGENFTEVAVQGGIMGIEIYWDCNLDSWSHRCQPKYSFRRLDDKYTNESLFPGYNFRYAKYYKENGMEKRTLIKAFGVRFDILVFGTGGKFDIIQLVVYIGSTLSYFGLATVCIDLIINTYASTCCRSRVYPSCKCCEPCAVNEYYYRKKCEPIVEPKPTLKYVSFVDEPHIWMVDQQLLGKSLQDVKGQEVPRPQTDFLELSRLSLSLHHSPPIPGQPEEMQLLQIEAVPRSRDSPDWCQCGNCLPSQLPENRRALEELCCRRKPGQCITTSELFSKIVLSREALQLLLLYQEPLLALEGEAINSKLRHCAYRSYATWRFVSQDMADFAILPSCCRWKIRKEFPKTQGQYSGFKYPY
Procedure, shortened: (§1)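 HEK-293 cells stably expressing the respective species' P2X7, Fluo-8 NW loaded 1 h at RT in low divalent buffer (0.3 mM Ca2+, 0 mM Mg2+). Compound preincubated 5 min, then Bz-ATP at EC80; FLIPR calcium influx over 3 min. IC50 from % inhibition relative to reference antagonist A438079, reported as potency bins.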

human P2X7 channel = molecular target: T2, human P2X7 channel (Homo sapiens, UniProt Q99572); assay: human P2X7 channel assay by automated patch-clamp (QPatch 16X); conditions: HEK-293 cells expressing P2X7; current evoked by 100 microM BzATP; whole-cell, held at -80 mV; read-out: human Q-Patch (activity range)
T2 construct: expressed in transfected cells; host or cells: HEK-293
T2 sequence (Q99572 1-595): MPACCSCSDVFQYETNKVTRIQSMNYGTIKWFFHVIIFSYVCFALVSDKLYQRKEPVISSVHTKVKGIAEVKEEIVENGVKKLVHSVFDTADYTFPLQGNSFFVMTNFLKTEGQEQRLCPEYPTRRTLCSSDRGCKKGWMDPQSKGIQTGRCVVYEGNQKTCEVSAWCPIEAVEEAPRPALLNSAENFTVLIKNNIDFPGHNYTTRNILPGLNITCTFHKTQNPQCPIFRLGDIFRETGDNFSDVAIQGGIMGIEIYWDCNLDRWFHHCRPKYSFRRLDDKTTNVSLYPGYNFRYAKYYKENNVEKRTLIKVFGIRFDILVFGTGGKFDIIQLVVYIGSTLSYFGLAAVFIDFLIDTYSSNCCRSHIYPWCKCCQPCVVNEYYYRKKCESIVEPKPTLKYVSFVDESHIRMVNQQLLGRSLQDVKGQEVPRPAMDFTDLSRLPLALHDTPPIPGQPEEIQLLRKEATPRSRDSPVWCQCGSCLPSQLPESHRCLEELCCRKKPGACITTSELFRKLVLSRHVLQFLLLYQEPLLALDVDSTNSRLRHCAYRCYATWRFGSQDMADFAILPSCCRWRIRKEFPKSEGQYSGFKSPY
Procedure, shortened: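 Whole-cell patch clamp on HEK-293 cells expressing P2X7, room temperature, held at −80 mV, CsF internal and NaCl external (pH 7.4). Currents evoked by 100 microM BzATP, four controls then with compound at 1, 10, 100 and 1000 nM; peak inward current normalized, IC50 from dose-response fit, reported as potency bins.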

mouseP2X7 = molecular target: T3, mouseP2X7 (Mus musculus, UniProt Q9Z1M0); assay: P2X7 channel calcium-influx assay (Fluo-8, FLIPR TETRA), mouse P2X7; conditions: HEK-293 cells stably transfected with P2X7; Bz-ATP at EC80; low divalent cation buffer; read-out: mouseP2X7 (activity range)
T3 construct: expressed in transfected cells; host or cells: HEK-293
T3 sequence (Q9Z1M0 1-595): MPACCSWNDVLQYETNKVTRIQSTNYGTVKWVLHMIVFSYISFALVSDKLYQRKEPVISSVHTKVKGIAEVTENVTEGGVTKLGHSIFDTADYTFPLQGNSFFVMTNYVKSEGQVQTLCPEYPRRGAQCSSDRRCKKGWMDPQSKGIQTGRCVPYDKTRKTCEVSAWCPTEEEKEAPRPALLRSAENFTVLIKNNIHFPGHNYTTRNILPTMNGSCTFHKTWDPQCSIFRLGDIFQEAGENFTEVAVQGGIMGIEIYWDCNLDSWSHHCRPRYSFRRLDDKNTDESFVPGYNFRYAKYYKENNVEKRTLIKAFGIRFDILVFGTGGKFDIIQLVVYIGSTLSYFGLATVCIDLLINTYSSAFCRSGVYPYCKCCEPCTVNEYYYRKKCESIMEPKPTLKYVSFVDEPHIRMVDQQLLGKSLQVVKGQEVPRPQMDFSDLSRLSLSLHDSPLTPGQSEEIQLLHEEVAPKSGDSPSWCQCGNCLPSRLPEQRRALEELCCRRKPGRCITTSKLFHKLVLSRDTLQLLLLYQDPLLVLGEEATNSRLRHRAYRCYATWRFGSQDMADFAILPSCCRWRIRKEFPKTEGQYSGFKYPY
Procedure, shortened: as §1

humanP2X7 = molecular target: T4, humanP2X7 (Homo sapiens, UniProt Q99572); assay: P2X7 channel calcium-influx assay (Fluo-8, FLIPR TETRA), human P2X7; conditions: HEK-293 cells stably transfected with P2X7; Bz-ATP at EC80; low divalent cation buffer; read-out: humanP2X7 (activity range)
T4 construct: expressed in transfected cells; host or cells: HEK-293
T4 sequence (Q99572 1-595): T2 sequence (Q99572 1-595)
Procedure, shortened: as §1

| Structure (SMILES) | IC50 (ratP2X7) [nM] | IC50 (human P2X7 channel) [nM] | IC50 (mouseP2X7) [nM] | IC50 (humanP2X7) [nM] |
| --- | --- | --- | --- | --- |
| Cn1nc(Cc2ccccc2C(F)(F)F)n(CC2CCCCCC2)c1=O [Example 28, 4-(cycloheptylmethyl)-2-methyl-5-(2-(trifluoromethyl)benzyl)-2,4-dihydro-3H-1,2,4-triazol-3-one] | < 200 | 100 to 1000 | 1000 to 10000 | 200 to 1000 |
| Cn1nc(Cc2ccccc2C(F)(F)F)n(CC2CCCCC2)c1=O [Example 17, 4-(cyclohexylmethyl)-2-methyl-5-(2-(trifluoromethyl)benzyl)-2,4-dihydro-3H-1,2,4-triazol-3-one] | < 200 | 100 to 1000 | 1000 to 10000 | 200 to 1000 |
| Cn1nc(Cc2ccc(F)cc2Cl)n(CC2CCC(C(F)(F)F)CC2)c1=O (stereo not drawn) [Example 52, 5-(2-chloro-4-fluorobenzyl)-2-methyl-4-((4-(trifluoromethyl)cyclohexyl)methyl)-2,4-dihydro-3H-1,2,4-triazol-3-one] | < 200 | 100 to 1000 | 1000 to 10000 | 200 to 1000 |
| Cn1nc(Cc2ccccc2C(F)(F)F)n(CC2CCC(F)(F)C2)c1=O (stereo not drawn) [Example 19, 4-((3,3-difluorocyclopentyl)methyl)-2-methyl-5-(2-(trifluoromethyl)benzyl)-2,4-dihydro-3H-1,2,4-triazol-3-one] | 200 to 1000 | 100 to 1000 | 10000 to 30000 | 1000 to 10000 |
| Cn1nc(Cc2ccccc2C(F)(F)F)n(CC2CCC(F)(F)CC2)c1=O [Example 18, 4-((4,4-difluorocyclohexyl)methyl)-2-methyl-5-(2-(trifluoromethyl)benzyl)-2,4-dihydro-3H-1,2,4-triazol-3-one] | < 200 | 10 to 100 | 1000 to 10000 | < 200 |
| Cn1nc(Cc2ccccc2C(F)(F)F)n(CCC2CCC(C)(C)CC2)c1=O [Example 49, 4-(2-(4,4-dimethylcyclohexyl)ethyl)-2-methyl-5-(2-(trifluoromethyl)benzyl)-2,4-dihydro-3H-1,2,4-triazol-3-one] | 10000 to 30000 | 1000 to 10000 | 10000 to 30000 | 1000 to 10000 |
| CCn1nc(CC2CCCCCC2)n(Cc2c(F)cccc2Cl)c1=O [Example 60, 4-[(2-chloro-6-fluorophenyl)methyl]-5-(cycloheptylmethyl)-2-ethyl-2,4-dihydro-3H-1,2,4-triazol-3-one] | < 200 | 100 to 1000 | 1000 to 10000 | 200 to 1000 |
| Cn1nc(Cc2ccccc2C(F)(F)F)n(CCC2CCC(F)(F)CC2)c1=O [Example 39, 4-(2-(4,4-difluorocyclohexyl)ethyl)-2-methyl-5-(2-(trifluoromethyl)benzyl)-2,4-dihydro-3H-1,2,4-triazol-3-one] | 200 to 1000 | 100 to 1000 | 1000 to 10000 | 200 to 1000 |
| Cn1nc(Cc2ccccc2F)n(CCC2CCC(F)(F)CC2)c1=O [Example 46, 4-(2-(4,4-difluorocyclohexyl)ethyl)-5-(2-fluorobenzyl)-2-methyl-2,4-dihydro-3H-1,2,4-triazol-3-one] | 200 to 1000 | 1000 to 10000 | 1000 to 10000 | 1000 to 10000 |
| O=c1n(CC(F)(F)F)nc(CC2CCC(F)(F)CC2)n1Cc1c(F)cccc1Cl [Example 70, 4-[(2-chloro-6-fluorophenyl)methyl]-5-[(4,4-difluorocyclohexyl)methyl]-2-(2,2,2-trifluoroethyl)-2,4-dihydro-3H-1,2,4-triazol-3-one] | < 200 | 100 to 1000 | 1000 to 10000 | 200 to 1000 |

The next lines start with the values.

| IC50 (ratP2X7) [nM] | IC50 (human P2X7 channel) [nM] | IC50 (mouseP2X7) [nM] | IC50 (humanP2X7) [nM] | Structure (SMILES) |
| --- | --- | --- | --- | --- |
| < 200 | 10 to 100 | 1000 to 10000 | < 200 | Cn1nc(Cc2c(F)cccc2Cl)n(CCC2CCC(F)(F)CC2)c1=O [Example 15, 5-(2-chloro-6-fluorobenzyl)-4-(2-(4,4-difluorocyclohexyl)ethyl)-2-methyl-2,4-dihydro-3H-1,2,4-triazol-3-one] |
| < 200 | 1000 to 10000 | 1000 to 10000 | 1000 to 10000 | Cn1nc(Cc2ccccc2F)n(CC2CCCCC2)c1=O [Example 27, 4-(cyclohexylmethyl)-5-(2-fluorobenzyl)-2-methyl-2,4-dihydro-3H-1,2,4-triazol-3-one] |
| < 200 | 100 to 1000 | 1000 to 10000 | 200 to 1000 | Cn1nc(Cc2ccccc2F)n(CC2CCC(F)(F)CC2)c1=O [Example 26, 4-((4,4-difluorocyclohexyl)methyl)-5-(2-fluorobenzyl)-2-methyl-2,4-dihydro-3H-1,2,4-triazol-3-one] |
| < 200 | < 10 | < 200 | < 200 | O=c1n(CC(F)(F)F)nc(Cc2c(F)cccc2Cl)n1CC1CCC(F)(F)CC1 [Example 44, 5-(2-chloro-6-fluorobenzyl)-4-((4,4-difluorocyclohexyl)methyl)-2-(2,2,2-trifluoroethyl)-2,4-dihydro-3H-1,2,4-triazol-3-one] |
| < 200 | 100 to 1000 | 1000 to 10000 | 200 to 1000 | Cn1nc(Cc2ccc(F)cc2Cl)n(CC2CCC3(CC2)CC3)c1=O [Example 35, 5-(2-chloro-4-fluorobenzyl)-2-methyl-4-(spiro[2.5]octan-6-ylmethyl)-2,4-dihydro-3H-1,2,4-triazol-3-one] |
| < 200 | < 10 | < 200 | < 200 | Cn1nc(Cc2c(F)cccc2Cl)n(CC2CCC3(CC2)CC3)c1=O [Example 14, 5-(2-chloro-6-fluorobenzyl)-2-methyl-4-(spiro[2.5]octan-6-ylmethyl)-2,4-dihydro-3H-1,2,4-triazol-3-one] |
| 10000 to 30000 | 1000 to 10000 | 10000 to 30000 | 10000 to 30000 | Cn1nc(Cc2c(F)cccc2Cl)n(CCO)c1=O [Example 53, 5-(2-chloro-6-fluorobenzyl)-4-(2-hydroxyethyl)-2-methyl-2,4-dihydro-3H-1,2,4-triazol-3-one] |
| 10000 to 30000 | 1000 to 10000 | 10000 to 30000 | 10000 to 30000 | Cn1nc(Cc2c(F)cccc2Cl)n(CC2CCCO2)c1=O (stereo not drawn) [Example 20, 5-(2-chloro-6-fluorobenzyl)-2-methyl-4-((tetrahydrofuran-2-yl)methyl)-2,4-dihydro-3H-1,2,4-triazol-3-one] |

— US20240368092A1, “2,4-Dihydro-3H-1,2,4-Triazol-3-One P2X7 Antagonists” (Breye Therapeutics ApS, priority 2021, published 2024)
